Where “and” joins values, the source holds several entries; their conditions need not be identical. Equal entries are not always repeated. Where two headings read alike, the source gives them in different places.
How the values were obtained:
[1] = system: MMPs produced by synovial tissue in response to IL-1β; conditions: for activity of the MMPs, % of that measured in tissues not exposed to the regulator: IL-1β alone = 100%
[2] = system: cells in the synovial tissue; experiment: Trypan blue exclusion test on synovial tissue; conditions: Examples 1-4
Method: Multiple samples of synovial tissue, each approximately 20 mg, were obtained from a person with osteoarthritis (grade IV, Kellgren-Lawrence scale).

[3] = Example 1, person, regulator 0.01 mg/mL
[4] = Example 1, person, regulator 0.05 mg/mL
[5] = Example 2, person, regulator 0.01 mg/mL
[6] = Example 2, person, regulator 0.05 mg/mL
[7] = Example 3, person, regulator 0.01 mg/mL
[8] = Example 3, person, regulator 0.05 mg/mL
[9] = Example 4, person, regulator 0.01 mg/mL
[10] = Example 4, person, regulator 0.05 mg/mL
[11] = Example 5, person, single regulator 0.1 mg/mL
[12] = Example 6, person, single regulator 0.1 mg/mL
[13] = Example 7, person, single regulator 0.1 mg/mL

Compound | activity of the MMPs, % of that measured in tissues not exposed to the regulator [1, 3] [%] | activity of the MMPs, % of that measured in tissues not exposed to the regulator [1, 4] [%] | activity of the MMPs, % of that measured in tissues not exposed to the regulator [1, 5] [%] | activity of the MMPs, % of that measured in tissues not exposed to the regulator [1, 6] [%] | activity of the MMPs, % of that measured in tissues not exposed to the regulator [1, 7] [%] | activity of the MMPs, % of that measured in tissues not exposed to the regulator [1, 8] [%] | activity of the MMPs, % of that measured in tissues not exposed to the regulator [1, 9] [%] | activity of the MMPs, % of that measured in tissues not exposed to the regulator [1, 10] | activity of the MMPs, % of that measured in tissues not exposed to the regulator [1, 11] [%] | activity of the MMPs, % of that measured in tissues not exposed to the regulator [1, 12] [%] | activity of the MMPs, % of that measured in tissues not exposed to the regulator [1, 13] [%] | concentration at which death of cells in the synovial tissue was observed [2] | effect on blocking MMP activity of further increasing the concentration ([1]; Examples 1-4, concentration increased from 0.05 mg/mL up to 0.1 mg/mL, compared with level at 0.05 mg/mL)
COc1ccc(CCN(C)CCCC(C#N)(c2ccc(OC)c(OC)c2)C(C)C)cc1OC (stereo not shown) [verapamil] | 38 | 18.9 | 37.2 | 21.5 | 37 | 23.2 | 35 | 13.6% and 13.1% | 16 | 21.9 | 17.4 | above 0.1 mg/mL | –
COc1ccc([C@@H]2Sc3ccccc3N(CCN(C)C)C(=O)[C@@H]2OC(C)=O)cc1 [diltiazem] | 97 | 27.1 | 99 | 35.7 | 97 | 24.7 | 98.1 | 22.6% | 24.8 | 29.8 | 34.3 | above 0.1 mg/mL | no further effect

Source: patent US20120309709A1, “Ion-Channel Regulator Compositions and Methods of Using Same” (priority 2007, published 2012)
